Test results taken from ChEMBL document CHEMBL3621040, “Dicarabrol, a new dimeric sesquiterpene from Carpesium abrotanoides L” (Bioorg Med Chem Lett, 2015).
Converted amounts (≈) assume the structure as drawn.

How the values were obtained:
[1] = tested on: Mycobacterium tuberculosis; assay: Antimycobacterial activity against Mycobacterium tuberculosis H37Ra after 7 days by alamar blue dye assay; assay type: functional; conditions: 168 h
U-937 = assay: Cytotoxicity against human U937 cells after 72 hrs by CCK8 assay; assay type: functional, cell-based; conditions: U-937, 72 h
HL-60 = assay: Cytotoxicity against human HL60 cells after 72 hrs by CCK8 assay; assay type: functional, cell-based; conditions: HL-60, 72 h
[2] = Cytotoxicity against human SGC7901 cells after 72 hrs by CCK8 assay; assay type: functional, cell-based; conditions: SGC-7901, 72 h
DU-145 = assay: Cytotoxicity against human DU145 cells after 72 hrs by CCK8 assay; assay type: functional, cell-based; conditions: DU-145, 72 h
HeLa = assay: Cytotoxicity against human HeLa cells after 72 hrs by CCK8 assay; assay type: functional, cell-based
Influenza A virus [3] = assay: Antiviral activity against Influenza A virus H1N1 infected in MDCK cells assessed as protection against virus-induced cytopathic effect after 48 hrs by crystal violet staining; assay type: functional, organism-based
K562 = assay: Cytotoxicity against human K562 cells after 72 hrs by CCK8 assay; assay type: functional, cell-based; conditions: K562, 72 h
A549 = assay: Cytotoxicity against human A549 cells after 72 hrs by CCK8 assay; assay type: functional, cell-based; conditions: A549, 72 h
Influenza A virus [4] = assay: Antiviral activity against Influenza A virus H3N2 infected in MDCK cells assessed as protection against virus-induced cytopathic effect after 48 hrs by crystal violet staining; assay type: functional, organism-based
MOLT-4 = assay: Cytotoxicity against human MOLT4 cells after 72 hrs by CCK8 assay; assay type: functional, cell-based; conditions: MOLT-4, 72 h
NCI-H1975 = assay: Cytotoxicity against human NCI-H1975 cells after 72 hrs by CCK8 assay; assay type: functional, cell-based; conditions: NCI-H1975, 72 h
MCF7 = assay: Cytotoxicity against human MCF7 cells after 72 hrs by CCK8 assay; assay type: functional, cell-based; conditions: MCF7, 72 h

Structure (SMILES)	MIC [1] [µM]	IC50 (U-937) [nM]	IC50 (HL-60) [nM]	IC50 [2] [nM]	IC50 (DU-145) [nM]	IC50 (HeLa) [nM]	IC50 (Influenza A virus [3]) [nM]	IC50 (K562) [nM]	IC50 (A549) [nM]	IC50 (Influenza A virus [4]) [nM]	IC50 (MOLT-4) [nM]	IC50 (NCI-H1975) [nM]	IC50 (MCF7) [nM]
NNC(=O)c1ccncc1 [ISONIAZID]	2 (≈ 0.274 µg/mL)												
C=C1C(=O)O[C@@H]2C[C@]3(C)[C@@H](CCC(C)O)C[C@@]4(C(=O)O[C@@H]5C[C@@H]6[C@@H](CC[C@H](C)O)[C@@H]6C[C@@H]54)[C@@H]3C[C@H]12 (stereo not given in full)	3.7 (≈ 1.8 µg/mL)	150	100	710	310	610	15900	1200	2700	30000	1300	1400	3300
CCOC(=O)C1=C[C@@H](OC(CC)CC)[C@H](NC(C)=O)[C@@H](N)C1 [OSELTAMIVIR]							25			15			
C=C1C(=O)O[C@H]2C[C@@]3(C)O[C@@H]3CC[C@@]3(C)O[C@@H]3C[C@H]12	6 (≈ 1.59 µg/mL)	210	180	6400	380	1000	10800	1700	2000	11600	1200	5400	4100
C=C1C(=O)O[C@H]2C[C@@H](C)[C@@H]3CC[C@H](O)[C@@]3(C)C[C@H]12 [PSEUDOGUAIANOLIDE]	7.6 (≈ 1.9 µg/mL)	2200	2400	22000	3100	6000	29300	17000	6200	47300	5500	13000	11000
CC(=O)O[C@H]1C(=O)[C@@]2(C)[C@H]([C@H](OC(=O)c3ccccc3)[C@]3(O)C[C@H](OC(=O)[C@H](O)[C@@H](NC(=O)c4ccccc4)c4ccccc4)C(C)=C1C3(C)C)[C@]1(OC(C)=O)CO[C@@H]1C[C@@H]2O [PACLITAXEL]		2100	3800	9800	3100			3800	2100		2700	2800	
